Reference: US20220251084A1, “PROGRANULIN MODULATORS AND METHODS OF USING THE SAME” (ARKUDA THERAPEUTICS, priority 2019, published 2022)
pEC50: −log10 of the molar value.

Test system: progranulin (PGRN) secretion, BV-2 cells
Test: PGRN assay: progranulin induction cellular assay (ELISA of secreted mouse PGRN)
Type: cell-based
Conditions: not given
Experimental: Cellular Assays: To measure the efficacy of compounds, a progranulin induction cellular assay in mouse primary microglia (pMG), primary cortical neurons, and BV-2 cell lines is used. BV-2 cells are split the day before plating into a 96 well plate format at approximately 80%. Cells should be plated the day before and allowed for 1 hour attachment period and for 16 hour incubation. […] Standard ELISA kits to measure PGRN are available from vendors such as Adipogen, R&D, and Biovendor.

SMILES	pEC50
O=C(O[C@@H]1CN2CCC1(F)CC2)N1CCc2ccccc2[C@@H]1c1ccc(F)cc1 (single isomer, unassigned) [Compound 2126]	5.90
O=C(O[C@H]1CN2CCC1(F)CC2)N1CCc2ccccc2[C@@H]1c1ccc(F)cc1 (single isomer, unassigned) [Compound 2127]	5.73

Same assay, conditions: Mus musculus, BV-2, PGRN assay, Table C; secreted mouse PGRN in cell culture medium, ELISA

pEC50	SMILES
6.49	CN1C[C@H]2CC[C@@H](OC(=O)N3CCc4ccccc4[C@@H]3c3ccc(F)cc3)[C@H]2C1 (relative stereo) [Compound 2061, (1 S)-(rel-(3′aR,6′aS)-2′-methyloctahydrocyclopenta[c]pyrrol-4-yl)-1-(4-fluorophenyl)-3,4-dihydroisoquinoline-2(1H)-carboxylate]
5.95	CN1C[C@@H]2CC[C@H](OC(=O)N3CCc4ccccc4[C@@H]3c3ccc(F)cc3)[C@@H]2C1 (relative stereo) [Compound 2062, (1 S)-(rel-(3′aR,6′aS)-2′-methyloctahydrocyclopenta[c]pyrrol-4-yl)-1-(4-fluorophenyl)-3,4-dihydroisoquinoline-2(1H)-carboxylate]
< 5.00	CN1CCS(=O)(=O)[C@@H](CC(=O)N2CCc3ccccc3[C@@H]2c2ccc(F)cc2)C1 (single isomer, unassigned) [Compound 2043]
< 5.00	CN1CC2OCC(OC(=O)N3CCc4ccccc4[C@@H]3c3ccc(F)cc3)C2C1 (single isomer, unassigned) [Compound 2076]
6.42	CN1CC2CCC(C1)C2OC(=O)N1CCc2ccccc2[C@@H]1c1ccc(F)cc1 (single isomer, unassigned) [Compound 2093]
6.56	O=C(O[C@H]1[C@@H]2CC[C@H]1CNC2)N1CCc2ccccc2[C@@H]1c1ccc(F)cc1 (single isomer, unassigned) [Compound 2102]
5.37	O=C(O[C@@H]1[C@@H]2CC[C@H]1CNC2)N1CCc2ccccc2[C@@H]1c1ccc(F)cc1 (single isomer, unassigned) [Compound 2103]
< 5.00	CN1CC2COC[C@@H](C1)[C@H]2OC(=O)N1CCc2ccccc2[C@@H]1c1ccc(F)cc1 (single isomer, unassigned) [Compound 2106]
< 5.00	CN1CCC(COC(=O)N2CCc3ccccc3[C@H]2c2ccc(F)c(F)c2)CC1 (single isomer, unassigned) [Compound 2139, (1-methylpiperidin-4-yl)methyl-1-(3,4-difluorophenyl)-3,4-dihydroisoquinoline-2(1H)-carboxylate]
5.60	O=C(O[C@H]1CCCNC1)N1CCc2ccccc2[C@@H]1c1ccc(F)cc1 (single isomer, unassigned) [Compound 2168]
6.66	O=C(O[C@@H]1CCCNC1)N1CCc2ccccc2[C@@H]1c1ccc(F)cc1 (single isomer, unassigned) [Compound 2181]
< 5.00	O=C1C[C@H](COC(=O)N2CCc3ccccc3[C@@H]2c2ccc(F)cc2)CCN1 (single isomer, unassigned) [Compound 2185, (1 S)-(2-oxopiperidin-4-yl)methyl 1-(4-fluorophenyl)-3,4-dihydroisoquinoline-2(1H)-carboxylate]
< 5.00	O=C1C[C@@H](COC(=O)N2CCc3ccccc3[C@@H]2c2ccc(F)cc2)CCN1 (single isomer, unassigned) [Compound 2186, (1 S)-(2-oxopiperidin-4-yl)methyl 1-(4-fluorophenyl)-3,4-dihydroisoquinoline-2(1H)-carboxylate]

SMILES	pEC50
CN1[C@H]2COC[C@H]1CC(OC(=O)N1CCc3ccccc3[C@@H]1c1ccc(F)cc1)C2 (single isomer, unassigned) [Compound 2099]	5.73
Fc1ccc(C2c3ccccc3CCN2C(C[C@@H]2CN3CCC2CC3)C(F)(F)F)cc1 (single isomer, unassigned) [Compound 2132]	5.51
O=C(OCC12CCN(CC1)CC2)N1CCc2ccccc2[C@@H]1c1cc(F)cc(F)c1 (single isomer, unassigned) [Compound 2140, quinuclidin-4-ylmethyl-1-(3,5-difluorophenyl)-3,4-dihydroisoquinoline-2(1H)-carboxylate]	5.00
O=C(OCC12CCN(CC1)CC2)N1CCc2ccccc2[C@H]1c1cc(F)cc(F)c1 (single isomer, unassigned) [Compound 2141, quinuclidin-4-ylmethyl-1-(3,5-difluorophenyl)-3,4-dihydroisoquinoline-2(1H)-carboxylate]	< 5.00
O=C([C@@H](O)CC12CCN(CC1)CC2)N1CCc2ccccc2[C@@H]1c1ccc(F)cc1 (single isomer, unassigned) [Compound 2153]	< 5.00
O=C([C@H](O)CC12CCN(CC1)CC2)N1CCc2ccccc2[C@@H]1c1ccc(F)cc1 (single isomer, unassigned) [Compound 2154]	6.45

Same assay, conditions: Mus musculus, BV-2, PGRN assay, Table D; secreted mouse PGRN in cell culture medium, ELISA

pEC50	SMILES
6.07	O=C(NC[C@H]1CNCCO1)N1CCc2ccccc2[C@@H]1c1ccc(F)cc1 (single isomer, unassigned) [Compound 2210]
5.52	CN(C(=O)N1CCc2ccccc2[C@@H]1c1ccc(F)cc1)[C@H]1CCCNC1 (single isomer, unassigned) [Compound 2211]
5.52	CN(C(=O)N1CCc2ccccc2[C@H]1c1ccc(F)cc1)[C@@H]1CCCNC1 (single isomer, unassigned) [Compound 2212]
5.45	CN(C(=O)N1CCc2ccccc2[C@@H]1c1ccc(F)cc1)[C@@H]1CCCNC1 (single isomer, unassigned) [Compound 2213]
5.21	O=C(NC[C@H]1CCCN1)N1CCc2ccccc2[C@H]1c1ccc(F)cc1 (single isomer, unassigned) [Compound 2219]
5.26	O=C(NC[C@H]1CCCNC1)N1CCc2ccccc2[C@@H]1c1ccc(F)cc1 (single isomer, unassigned) [Compound 2220]
6.62	O=C(OC[C@@]1(F)CCNC1)N1CCc2ccccc2[C@@H]1c1ccc(F)cc1 (single isomer, unassigned) [Compound 2255]
5.97	O=C(N[C@@H]1CNCCOC1)N1CCc2ccccc2[C@@H]1c1ccc(F)cc1 (single isomer, unassigned) [Compound 2277]
6.36	O=C(N[C@H]1CNCCOC1)N1CCc2ccccc2[C@H]1c1ccc(F)cc1 (single isomer, unassigned) [Compound 2278]
5.46	N[C@H]1CCN(C(=O)N2CCc3ccccc3[C@H]2c2ccc(F)cc2)C1 (single isomer, unassigned) [Compound 2285]
5.63	CN1CC[C@H](O)[C@@H](O)[C@@H]1COC(=O)N1CCc2ccccc2[C@@H]1c1ccc(F)cc1 (single isomer, unassigned) [Compound 2304]

SMILES	pEC50
CN1[C@H]2CC[C@@H]1[C@H](NC(=O)N1CCc3ccccc3[C@@H]1c1ccc(F)cc1)C2 (single isomer, unassigned) [Compound 2225]	6.00

Same assay, conditions: PGRN assay, Table D; secreted mouse PGRN in cell culture medium, ELISA

pEC50	SMILES
< 5.00	CN(C(=O)N1CCc2ccccc2[C@H]1c1ccc(F)cc1)[C@H]1CCNC1 (single isomer, unassigned) [Compound 2249]
6.35	O=C(N[C@H]1CNCCOC1)N1CCc2ccccc2[C@@H]1c1ccc(F)cc1 (single isomer, unassigned) [Compound 2275]
5.98	O=C(N[C@H]1CNCCOC1)N1CCc2ccccc2[C@@H]1c1ccc(F)cc1 (single isomer, unassigned) [Compound 2276]
